From PubChem BioAssay (NCI)
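Growth conditions: 96-well plates. Treatment: test compound, 48 hours, 5 concentrations. Analysis: linear interpolation between bracketing concentrations; unreached endpoints set to highest concentration. GI50 = concentration required for 50% inhibition of growth. TGI: concentration producing complete growth inhibition.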

Key:
Test in all cases: inhibition of tumour cell growth, NCI panel, 48 h
RXF 393 renal = system: RXF 393 renal
DLD-1 colon = system: DLD-1 colon
SNB-19 CNS = system: SNB-19 CNS
KM20L2 colon = system: KM20L2 colon
CCRF-CEM leukemia = system: CCRF-CEM leukemia
NCI-H522 lung = system: NCI-H522 lung
A549 NSCLC = system: A549 NSCLC
OVCAR-8 ovarian = system: OVCAR-8 ovarian
NCI/ADR-RES ovarian = system: NCI/ADR-RES ovarian
HS 578T breast = system: HS 578T breast

Row | SMILES | TGI (RXF 393 renal) [µM] | TGI (DLD-1 colon) [µM] | TGI (SNB-19 CNS) [µM] | TGI (KM20L2 colon) [µM] | TGI (CCRF-CEM leukemia) [µM] | TGI (NCI-H522 lung) [µM] | TGI (A549 NSCLC) [µM] | TGI (OVCAR-8 ovarian) [µM] | GI50 (RXF 393 renal) [µM] | GI50 (DLD-1 colon) [µM] | GI50 (SNB-19 CNS) [µM] | GI50 (KM20L2 colon) [µM] | GI50 (CCRF-CEM leukemia) [µM] | GI50 (NCI-H522 lung) [µM] | GI50 (A549 NSCLC) [µM] | GI50 (OVCAR-8 ovarian) [µM] | GI50 (NCI/ADR-RES ovarian) [µM] | TGI (NCI/ADR-RES ovarian) [µM] | GI50 (HS 578T breast) [µM] | TGI (HS 578T breast) [µM]
1 | CC(=O)NC(CCCN(Cc1ccccc1)C(=O)N(C)N=O)C(=O)NCc1ccccc1 (stereo unspecified) | > 100 | > 100 | > 100 | > 100 | > 100 | > 100 | > 100 | > 100 |  |  |  |  |  |  |  |  |  |  |  | 
2 | Cc1ccc2nc(NC(=O)C(=O)CC(=O)c3cccc4ccccc34)sc2c1 |  | > 100 | > 100 | > 100 | > 100 |  | > 100 | 56.7 |  |  |  |  |  |  |  |  |  |  |  | 
3 | c1ccc(-c2ccnc3c2ccc2c(-c4ccccc4)ccnc23)cc1 | 6.05 | 15.3 | 13.9 | 16.5 | 2.84 | 5.92 | 8.71 | 4.75 |  |  |  |  |  |  |  |  |  |  |  | 
4 | O=C1C=Cc2ncccc2C1=O | 35.9 | 34.2 | > 100 | > 63.2 | 15.2 | 29.7 | > 67.6 | 30.2 |  |  |  |  |  |  |  |  |  |  |  | 
5 | [CH3][Sn]1([CH3])[O]CC(COc2cc(Cl)c(Cl)cc2Cl)[O]1 (stereo unspecified) | > 100 | > 100 | > 100 | > 100 | > 100 | 36.3 | > 100 | > 100 | 29.1 | 54.5 | > 100 | > 100 | 32.5 | 16.8 | 83.6 | > 100 |  |  |  | 
6 | COC(=O)C(C(=O)C(N)=O)c1csc(-n2nc(-c3ccccc3)cc2-c2ccccc2)n1 (stereo unspecified) | > 31.6 | > 31.6 | 17.2 | > 31.6 | > 31.6 | > 31.6 | > 31.6 | > 31.6 |  |  |  |  |  |  |  |  |  |  |  | 
7 | C/C(=N\NS(=O)(=O)c1ccc([N+](=O)[O-])cc1)c1ccc[n+]([O-])n1 | 2.67 | 20.3 | 99.1 | 19.5 | > 30.1 | 4.51 | > 100 | 6.61 |  |  |  |  |  |  |  |  |  |  |  | 
8 | N#CC(C(=O)CCCC(=O)Nc1ccc(Cl)cc1Cl)c1ccc(Cl)cc1 (stereo unspecified) |  | > 100 | > 100 | > 100 |  | > 100 | > 100 | > 100 |  |  |  |  |  |  |  |  |  |  |  | 
9 | Cn1nc(-c2ccccc2)c(C(=O)/C=C/c2ccc(Cl)cc2)c(N2CCCC2)c1=O | 8.52 | 10.8 | 21.7 | 15.1 | 6.7 | 6.45 | 49.4 | 29.7 |  |  |  |  |  |  |  |  |  |  |  | 
10 | O=C(/C=C/C1C(=O)NC(=O)NC1=O)CC(=O)C(=O)Nc1cc(Cl)c(Cl)cc1Cl | > 100 | > 100 | > 100 | > 100 | > 100 | > 100 | > 100 | > 100 |  |  |  |  |  |  |  |  |  |  |  | 
11 | CC1=CC(=O)NP(=O)(C23CC4CC(CC(C4)C2)C3)N1 (stereo unspecified) |  | > 100 | > 100 | > 100 | > 100 | > 100 |  | > 100 |  |  |  |  |  |  |  |  |  |  |  | 
12 | CC(C)[Si](OCC1CC(C#N)OC(C)(C)O1)(C(C)C)C(C)C (stereo unspecified) | 31.9 | > 100 | 50.8 | 65.8 | 39.1 | 43.5 | > 100 | 48 |  |  |  |  |  |  |  |  |  |  |  | 
13 | COc1ccc(NC(=O)C2C(=O)N(c3ccc(OC)cc3)C(=O)/C2=N\NC(N)=O)cc1 (stereo unspecified) | 56.7 |  | > 100 | > 100 |  | > 100 |  | 34.6 |  |  |  |  |  |  |  |  |  |  |  | 
14 | COc1ccc(C)cc1C1CCC(=O)O1 (stereo unspecified) | > 100 | > 100 | > 100 | > 100 | > 100 | > 100 | > 100 | > 100 |  |  |  |  |  |  |  |  |  |  |  | 
15 | CCc1cc(Cc2ccc(C)c(NC(=O)C(=O)C3C(=O)NC(=O)NC3=O)c2CC)cc(C)c1NC(=O)C(=O)C1C(=O)NC(=O)NC1=O | > 100 | > 100 | > 100 | > 100 | > 100 | > 100 | > 100 | > 100 |  |  |  |  |  |  |  |  |  |  |  | 
16 | O=C1CCC(=O)c2sccc2N1 | > 100 | > 100 | > 100 | > 100 | > 100 | > 100 | > 100 | > 100 |  |  |  |  |  |  |  |  |  |  |  | 
17 | CC(C)(C)Sc1nnc(SC(C)(C)C)c2c(=O)[nH]nc(SC(C)(C)C)c12 | 14.2 | 22.8 | 23.8 | 22.1 | 28.1 | 14.2 | 17.9 | 22.1 |  |  |  |  |  |  |  |  |  |  |  | 
18 | COc1ccc(C2=Nc3c/c(=C\c4c(O)[nH]c5cc(Cl)ccc45)ccc3=N2)cc1 | 12.2 |  | 41.1 |  | 9.21 | 29.1 | 25.4 | 22.8 | 3.16 |  | 15.1 |  | 1.41 | 7.07 | 10.1 | 7.68 | 5 | 33.8 | 10.6 | 43.1
19 | CC(=O)Nc1ccc(-c2nnc(SCC(=O)Nc3ccc(Cl)cc3)o2)cc1 | 22.6 | 27.9 | 35.7 | 33.3 | 82.9 | 5.98 | 32 | 74.1 |  |  |  |  |  |  |  |  |  |  |  | 
20 | Cc1c(Cl)cccc1NC(=O)c1sc2nc3c(cc2c1N)CCCC3 | > 89.6 |  | > 100 |  | > 100 | 0.812 | > 100 | > 100 | 0.514 |  | 0.979 |  | 0.447 | 0.241 | 0.984 | 3.42 | 0.396 | > 100 | 1.05 | > 100
21 | COc1cccc(NC2=C(Cl)C(=O)N(Cc3ccc(Cl)cc3)C2=O)c1 | 6.26 |  | > 100 |  | > 68.9 | 22.9 | 26.8 | > 43.1 | 0.788 |  | 8.25 |  |  | 4.76 | 2.67 | 1.82 | 1.22 | 5.39 | 3.21 | 13.3
22 | COc1cc(/C=N/NC(=O)c2ccccc2Nc2cccc(C(F)(F)F)c2)cc(OC)c1OC | 5.87 |  | 18.5 |  | 4.33 | 24.6 | 10.8 | 11.6 | 2.35 |  | 3.85 |  | 1.03 | 6.1 | 3.6 | 4.81 | 3.87 | 14.4 | 0.971 | 6.6
